Experimental findings from ChEMBL document CHEMBL3039007, “Structure-based identification of OATP1B1/3 inhibitors” (Mol Pharmacol, 2013) are described below.

Data set [1] addresses T1, Solute carrier organic anion transporter family member 1B1 (Homo sapiens, UniProt Q9Y6L6).
T1 sequence (Q9Y6L6 whole entry): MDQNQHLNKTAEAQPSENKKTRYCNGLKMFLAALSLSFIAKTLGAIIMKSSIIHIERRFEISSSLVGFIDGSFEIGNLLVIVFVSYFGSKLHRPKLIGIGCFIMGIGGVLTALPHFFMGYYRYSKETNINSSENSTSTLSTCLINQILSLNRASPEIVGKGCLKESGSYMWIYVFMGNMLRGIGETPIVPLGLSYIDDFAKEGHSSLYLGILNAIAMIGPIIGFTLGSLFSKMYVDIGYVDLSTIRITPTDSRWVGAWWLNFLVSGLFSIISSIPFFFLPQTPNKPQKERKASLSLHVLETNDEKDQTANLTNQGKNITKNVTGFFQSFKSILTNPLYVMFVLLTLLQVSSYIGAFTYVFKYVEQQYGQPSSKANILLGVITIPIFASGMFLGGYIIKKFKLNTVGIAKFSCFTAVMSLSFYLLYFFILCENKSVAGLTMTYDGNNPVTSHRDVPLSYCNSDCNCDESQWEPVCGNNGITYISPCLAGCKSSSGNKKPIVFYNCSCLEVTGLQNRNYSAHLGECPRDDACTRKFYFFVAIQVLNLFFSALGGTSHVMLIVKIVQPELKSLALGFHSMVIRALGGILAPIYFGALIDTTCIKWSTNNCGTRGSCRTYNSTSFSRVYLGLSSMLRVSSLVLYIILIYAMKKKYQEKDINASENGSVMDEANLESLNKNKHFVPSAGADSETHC
As to conditions: chinese hamster, cho, 10 µM.

Data set [2] concerns the target T2, Solute carrier organic anion transporter family member 1B3 (Homo sapiens, UniProt Q9NPD5).
T2 sequence (Q9NPD5 whole entry): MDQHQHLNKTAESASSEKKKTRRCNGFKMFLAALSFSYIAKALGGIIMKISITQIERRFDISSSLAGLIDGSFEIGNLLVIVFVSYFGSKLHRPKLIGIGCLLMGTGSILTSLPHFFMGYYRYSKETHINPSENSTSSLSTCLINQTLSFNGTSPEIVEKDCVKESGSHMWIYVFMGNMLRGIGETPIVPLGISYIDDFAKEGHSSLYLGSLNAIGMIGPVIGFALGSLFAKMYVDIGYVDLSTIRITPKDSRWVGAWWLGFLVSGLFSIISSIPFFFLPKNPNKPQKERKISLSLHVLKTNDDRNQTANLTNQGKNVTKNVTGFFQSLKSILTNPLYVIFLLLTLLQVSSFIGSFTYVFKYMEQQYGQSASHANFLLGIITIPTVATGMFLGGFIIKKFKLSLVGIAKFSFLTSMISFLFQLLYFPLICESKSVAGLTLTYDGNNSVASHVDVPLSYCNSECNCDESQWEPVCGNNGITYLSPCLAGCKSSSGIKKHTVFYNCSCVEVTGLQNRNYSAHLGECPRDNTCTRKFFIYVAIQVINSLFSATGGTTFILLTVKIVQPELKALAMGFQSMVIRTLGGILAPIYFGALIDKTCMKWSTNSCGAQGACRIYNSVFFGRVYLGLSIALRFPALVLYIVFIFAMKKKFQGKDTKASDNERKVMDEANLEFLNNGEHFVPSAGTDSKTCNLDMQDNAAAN
To be noted: chinese hamster, cho, 10 µM.

Structures are written as SMILES. Starred links: 1 amine or outer side, 2 acyl side, 3 side chain; linkers in the order of their positions; H or OH if unused. Positions of bridges follow the written chain, without caps; N, C: chain ends. Non-standard residues stand in square brackets, D forms with d. Residues, ends and D or L forms follow the SMILES beside them. Chains are numbered I, II in the order given. Actinocin(9to1) = Cc1c2oc3c(C)ccc(C(=O)[*:1])c3nc-2c(C(=O)[*:2])c(N)c1=O; NMeV = CN[C@H](C(=O)O)C(C)C; Sar = CNCC(=O)O

As a reminder, the residual activity is the signal under treatment as a percentage of the control signal.

Take `COC(=O)[C@H]1OC(=O)[C@H]2O[C@]23[C@]2(C)[C@H](CC[C@]13C)[C@]1(C)CCC(=O)C(C)(C)[C@@H]1C[C@H]2OC(C)=O`: the figures for the residual activity in data set [1] and in data set [2] were 32.74% and 97.12%, respectively.
Consider `c1ccc(/N=N/c2ccccc2)cc1` [AZOBENZENE], for which the residual activity in data set [1] came to 216.3%; in data set [2], 112.1%.
Regarding `COc1c2c(cc3c1OCO3)CCN(C)C2` [HYDROCOTARNINE], the residual activity was found to be 77.76% in data set [1] and 98.91% in data set [2].
In the case of `OC[C@@H](O)[C@@H](O[C@@H]1O[C@H](CO)[C@@H](O)[C@H](O)[C@H]1O)[C@H](O)[C@@H](O)CO` [GLUCITOL-4-GUCOPYANOSIDE], the residual activity in data set [1] amounted to 90.99%; in data set [2], 90.65%.
The like results for `Cn1cc[nH]c1=S` [METHIMAZOLE] were, in that order, 111.7% and 105.6%.
The like results for `C[C@H]1O[C@@H](O[C@H]2[C@@H](O)C[C@H](O[C@H]3[C@@H](O)C[C@H](O[C@H]4CC[C@@]5(C)[C@H](CC[C@@H]6[C@@H]5CC[C@]5(C)[C@@H](C7=CC(=O)OC7)CC[C@]65O)C4)O[C@@H]3C)O[C@@H]2C)C[C@H](O)[C@@H]1O` [DIGITOXIN] were, in that order, 56.48% and 66.85%.
In the case of `Nc1nc2ccc(OC(F)(F)F)cc2s1` [RILUZOLE], the residual activity in data set [1] is reported as 95.81%; in data set [2], 124.8%.
As for `CC(C)c1c(O)ccc2c1CCC1[C@@](C)(C(=O)O)CCC[C@]21C` (stereo partly specified), the values for the residual activity in data set [1] and in data set [2] were 61.16% and 80.85%, respectively.
For the compound `COc1ccc(-c2cc(=O)c3c(O)cc(O[C@@H]4O[C@H](CO[C@@H]5O[C@@H](C)[C@H](O)[C@@H](O)[C@H]5O)[C@@H](O)[C@H](O)[C@H]4O)cc3o2)cc1O` [DIOSMIN], the figures for the residual activity in data set [1] and in data set [2] were 67.13% and 93.34%, respectively.
With `Cc1nc(C)c(Cl)c(O)c1Cl` [CLOPIDOL], the residual activity in data set [1] is 154.4%; in data set [2], 91.88%.
Regarding `Oc1cc(O)c2c(c1)O[C@H](c1ccc(O)c(O)c1)[C@@H](O)C2` [CIANIDANOL], the residual activity turned out to be 72.87% in data set [1] and 92.34% in data set [2].
For `C=C1c2c(Cl)ccc(O)c2C(=O)C2=C(O)[C@]3(O)C(=O)C(C(N)=O)=C(O)[C@@H](N(C)C)[C@@H]3[C@@H](O)[C@H]12.O=C(O)c1cc(S(=O)(=O)O)ccc1O` [MECLOCYCLINE SULFOSALICYLATE], the residual activity is 122.1% in data set [1] and 107.8% in data set [2].
On to `CC(=O)NC(C(=O)O)C(C)(C)SN=O` (stereo unspecified), for which the values for the residual activity in data set [1] and in data set [2] were 73.57% and 84.98%, respectively.
In the case of `CCN(CCCCOC(=O)c1ccc(OC)c(OC)c1)C(C)Cc1ccc(OC)cc1.Cl` (stereo unspecified) [MEBEVERINE HYDROCHLORIDE], the residual activity in data set [1] amounted to 89.99%; in data set [2], 112%.
The corresponding values for `Cc1scc2c1N(C(=O)CN1CCN(C)CC1)c1ccccc1NC2=O.Cl` [TELENZEPINE HYDROCHLORIDE] are 99.27% and 93.24%.
For `Nc1ccc(S(=O)(=O)Nc2ncccn2)cc1` [SULFADIAZINE], the residual activity in data set [1] was determined as 90.81%; in data set [2] it was 74.08%.
Turning to `C=C[C@@H](C1=CC(=O)C(OC)=C(OC)C1=O)c1ccccc1` [3,4-DIMETHOXYDALBERGIONE], the residual activity in data set [1] came out at 215.8%; in data set [2] it was 114.1%.
With `CCC(C(N)=O)c1ccccc1` (stereo unspecified) [FENBUTYRAMIDE], the residual activity is on record as 101.6% in data set [1] and 100.4% in data set [2].
Regarding `Cl.Clc1cccc(Cl)c1NC1=NCCN1` [CLONIDINE HYDROCHLORIDE], the results for the residual activity in data set [1] and in data set [2] were 73% and 99.63%, respectively.
On to `COc1c2ccoc2nc2c(OC)c(OCC(O)C(C)(C)O)ccc12` (stereo unspecified) [EVOXINE], for which the values for the residual activity in data set [1] and in data set [2] were 94% and 94.63%, respectively.
Take `C[C@@H]1CC[C@@]23CCC4(C)[C@@](C=CC5[C@@]6(C)CCC(=O)C(C)(C)C6CC[C@]54C)(OC2=O)C3[C@H]1C` (stereo partly specified) [3-OXOURSAN (28-13)OLIDE]: the residual activity in data set [1] came to 105.6%; in data set [2], 96.4%.
For `O=c1oc2ccccc2cc1O` [3-HYDROXYCOUMARIN], the values for the residual activity in data set [1] and in data set [2] were 126.8% and 116.7%, respectively.
Take `COc1cc(OC)c2c(=O)c(-c3ccccc3)c(C)oc2c1OC` [2-METHYL-5,7,8-TRIMETHOXYISOFLAVONE]: the residual activity in data set [1] is given as 115.1%; in data set [2], 98.52%.
Turning to `NC1(C(=O)O)CCCC1` [CYCLOLEUCINE], the results for the residual activity in data set [1] and in data set [2] were 99.09% and 108.5%, respectively.
The like results for `COc1ccc2c(c1O)-c1c(OC)c(OC)cc3c1[C@H](C2)N(C)CC3` [ISOCORYDINE] were, in that order, 115.2% and 102.1%.
Regarding `COc1ccc(-c2cc(=O)c3c(O)c(OC)c(O[C@@H]4O[C@H](CO[C@@H]5O[C@@H](C)[C@H](O)[C@@H](O)[C@H]5O)[C@@H](O)[C@H](O)[C@H]4O)cc3o2)cc1` [PECTOLINARIN], the residual activity in data set [1] worked out at 39.1%; in data set [2] it was 155.8%.
Regarding `COc1cc2c(cc1OC)-c1cc3ccc(OC)c(OC)c3c[n+]1CC2` [PALMITINE], the residual activity in data set [1] stood at 78.6%; in data set [2], 102.6%.
The like results for `CC(=O)Oc1ccccc1C(=O)Oc1ccccc1C(=O)O` [DIPLOSALSALATE] were, in that order, 91.69% and 93.37%.
As for `NS(=O)(=O)c1cc2c(cc1Cl)NCNS2(=O)=O` [HYDROCHLOROTHIAZIDE], the residual activity in data set [1] is reported as 68.94%; in data set [2], 82.24%.
Consider `O=C(O)c1nc2cc(Cl)c(Cl)cc2nc1O` [6,7-DICHLORO-3-HYDROXY-2-QUINOXALINECARBOXYLIC ACID], for which the results for the residual activity in data set [1] and in data set [2] were 119% and 108%, respectively.
On to `CCCc1ncc(C[n+]2ccccc2C)c(N)n1` [AMPROLIUM ION], for which the values for the residual activity in data set [1] and in data set [2] were 67.38% and 78.02%, respectively.
For the compound `Cl.N=c1ccn2c(n1)O[C@H]1[C@H](O)[C@@H](CO)O[C@H]12` [ANCITABINE HYDROCHLORIDE], the residual activity in data set [1] is on record as 68.78%; in data set [2], 66.03%.
Take `OC[C@H]1O[C@@H](n2cnc3c(NCc4ccco4)ncnc32)[C@H](O)[C@@H]1O` [KINETIN RIBOSIDE]: the residual activity is 114.7% in data set [1] and 112% in data set [2].
In the case of `O=C(/C=C/c1ccc(O)cc1)c1ccc(O)cc1O` [ISOLIQUIRITIGENIN], the values for the residual activity in data set [1] and in data set [2] were 210.9% and 119.2%, respectively.
The corresponding values for `Cc1c2oc3c(C)ccc(C(=O)N[C@@H]4C(=O)N[C@H](C(C)C)C(=O)N5CCC[C@H]5C(=O)N(C)CC(=O)N(C)[C@@H](C(C)C)C(=O)O[C@@H]4C)c3nc-2c(C(=O)N[C@@H]2C(=O)N[C@H](C(C)C)C(=O)N3CCC[C@H]3C(=O)N(C)CC(=O)N(C)[C@@H](C(C)C)C(=O)O[C@@H]2C)c(N)c1=O` [DACTINOMYCIN] (I: T[dV]P[Sar][NMeV] / II: T[dV]P[Sar][NMeV]; ester I:1-I:C, II:1-II:C; linker I:N-II:N via Actinocin(9to1)) are 57.98% and 85.16%.
In the case of `CN1[C@@H]2CC[C@H]1C[C@@H](OC(c1ccccc1)c1ccccc1N)C2` (stereo partly specified) [AMINOBENZTROPINE], the residual activity came out at 75.33% in data set [1] and 77.23% in data set [2].
The like results for `CC(C)[C@@H](C)/C=C/[C@@H](C)[C@H]1CC[C@H]2C3=CCC4CC(=O)CC[C@]4(C)[C@H]3CC[C@]12C` (stereo partly specified) [ERGOSTA-7,22-DIEN-3-ONE] were, in that order, 71.12% and 94.39%.
The corresponding values for `COc1ccnc(C[S+]([O-])c2nc3ccc(OC(F)F)cc3[nH]2)c1OC` (stereo unspecified) [PANTOPRAZOLE] are 81.37% and 79.12%.
